Among the data in PubChem BioAssay AID288 (DTP/NCI, 2004) are T/C values, retold here.

The assay deals with BDF1 mice, M5076 sarcoma s.c., survival/tumor T/C. The experiment in a line: NCI In Vivo Anticancer Drug Screen. Data for tumor model Sarcoma M5076 (subcutaneous) in B6D2F1 (BDF1) mice. As for the experimental part: The antitumor activity of compounds was measured in mice bearing transplantable tumors. Survival or tumor size were measured and the results are expressed as the measurement made in the treated group (T) divided by the measurement made in the vehicle treated control group (C). The tumor model used in this assay is Sarcoma M5076 (subcutaneous) in B6D2F1 (BDF1) mice

The mark [1] stands for this setting: endpoint: median survival time, dose: 50.0 mg/kg/injection, schedule: Q01DX009 (ip), vehicle: saline with Tween-80, higher = longer survival.
The mark [2] stands for this setting: endpoint: median survival time, dose: 100.0 mg/kg/injection, schedule: Q01DX009 (ip), vehicle: saline with Tween-80, higher = longer survival.
[3] abbreviates: endpoint: median survival time, dose: 200.0 mg/kg/injection, schedule: Q01DX009 (ip), vehicle: saline with Tween-80, higher = longer survival.
The mark [4] stands for this setting: endpoint: median tumor weight (est.), dose: 50.0 mg/kg/injection, schedule: Q01DX009 (ip), vehicle: saline with Tween-80, higher = larger tumour.
Setting [5] is: endpoint: median tumor weight (est.), dose: 100.0 mg/kg/injection, schedule: Q01DX009 (ip), vehicle: saline with Tween-80, higher = larger tumour.
The mark [6] stands for this setting: endpoint: median tumor weight (est.), dose: 200.0 mg/kg/injection, schedule: Q01DX009 (ip), vehicle: saline with Tween-80, higher = larger tumour.

Several values for one entry are separate records, joined by “and”; a condition that tells them apart may be missing. Equal entries are not always repeated. Records with an inconclusive call do not appear.

In the case of `Nc1nc([Se])c2ncn(C3OC(CO)C(O)C3O)c2n1` (centres undefined), the T/C is, setting by setting: (endpoint: median survival time, dose: 4.0 mg/kg/injection, schedule: Q01DX009 (ip), vehicle: saline, higher = longer survival) 108 % of control; (endpoint: median survival time, dose: 8.0 mg/kg/injection, schedule: Q01DX009 (ip), vehicle: saline, higher = longer survival) 118 % of control; (endpoint: median survival time, dose: 8.0 mg/kg/injection, schedule: Q01DX009 (ip), vehicle: suspension in saline, higher = longer survival) 118 % of control; (endpoint: median survival time, dose: 16.0 mg/kg/injection, schedule: Q01DX009 (ip), vehicle: saline, higher = longer survival) 119 % of control; (endpoint: median survival time, dose: 16.0 mg/kg/injection, schedule: Q01DX009 (ip), vehicle: suspension in saline, higher = longer survival) 119 % of control; (endpoint: median tumor weight (est.), dose: 4.0 mg/kg/injection, schedule: Q01DX009 (ip), vehicle: saline, higher = larger tumour) 64 % of control. Also, the T/C is 33 % of control (endpoint: median tumor weight (est.), dose: 8.0 mg/kg/injection, schedule: Q01DX009 (ip), vehicle: saline, higher = larger tumour); 24 % of control (endpoint: median tumor weight (est.), dose: 8.0 mg/kg/injection, schedule: Q01DX009 (ip), vehicle: suspension in saline, higher = larger tumour); 8 % of control (endpoint: median tumor weight (est.), dose: 16.0 mg/kg/injection, schedule: Q01DX009 (ip), vehicle: saline, higher = larger tumour); 6 % of control (endpoint: median tumor weight (est.), dose: 16.0 mg/kg/injection, schedule: Q01DX009 (ip), vehicle: suspension in saline, higher = larger tumour).
As to `COc1cc(NS(C)(=O)=O)ccc1Nc1c2ccccc2nc2ccccc12`, the T/C runs as follows: (endpoint: mean tumor weight, dose: 1.88 mg/kg/injection, schedule: Q02DX011 (ip), vehicle: clinical formulation, higher = larger tumour) 68 % of control; (endpoint: mean tumor weight, dose: 3.75 mg/kg/injection, schedule: Q02DX011 (ip), vehicle: clinical formulation, higher = larger tumour) 31 % of control; (endpoint: median tumor weight (est.), dose: 1.88 mg/kg/injection, schedule: Q02DX011 (ip), vehicle: clinical formulation, higher = larger tumour) 79 % of control; (endpoint: median tumor weight (est.), dose: 3.75 mg/kg/injection, schedule: Q02DX011 (ip), vehicle: clinical formulation, higher = larger tumour) 42 % of control.
Consider `CC1(C)OC(C)(C)c2c1nnc(-c1cccc([N+](=O)[O-])c1)[n+]2[O-]`, for which the T/C under setting [1] is 110 % of control; the T/C under setting [2] was 113 % of control; the T/C under setting [3] was 113 % of control; the T/C under setting [4] was 91 % of control; the T/C under setting [5] is 119 % of control; the T/C under setting [6] was 97 % of control.
Turning to `OC(C1CO1)C(O)C1CO1` (centres undefined), the T/C is, setting by setting: (endpoint: mean tumor weight, dose: 1.0 mg/kg/injection, schedule: Q02DX011 (ip), vehicle: saline, higher = larger tumour) 58 % of control; (endpoint: mean tumor weight, dose: 2.0 mg/kg/injection, schedule: Q02DX011 (ip), vehicle: saline, higher = larger tumour) 10 % of control and 12 % of control; (endpoint: median survival time, dose: 2.0 mg/kg/injection, schedule: Q01DX009 (ip), vehicle: saline, higher = longer survival) 122 % of control; (endpoint: median tumor weight (est.), dose: 1.0 mg/kg/injection, schedule: Q02DX011 (ip), vehicle: saline, higher = larger tumour) 67 % of control; (endpoint: median tumor weight (est.), dose: 2.0 mg/kg/injection, schedule: Q01DX009 (ip), vehicle: saline, higher = larger tumour) 29 % of control; (endpoint: median tumor weight (est.), dose: 2.0 mg/kg/injection, schedule: Q02DX011 (ip), vehicle: saline, higher = larger tumour) 1 % of control and 8 % of control.
Turning to `COC(=O)c1csc(C2OC(CO)C(O)C2O)n1` (centres undefined), the T/C was 98 % of control (endpoint: median survival time, dose: 50.0 mg/kg/injection, schedule: Q01DX009 (ip), vehicle: saline, higher = longer survival); 100 % of control (endpoint: median survival time, dose: 100.0 mg/kg/injection, schedule: Q01DX009 (ip), vehicle: saline, higher = longer survival); 100 % of control (endpoint: median survival time, dose: 200.0 mg/kg/injection, schedule: Q01DX009 (ip), vehicle: saline, higher = longer survival); 61 % of control (endpoint: median tumor weight (est.), dose: 50.0 mg/kg/injection, schedule: Q01DX009 (ip), vehicle: saline, higher = larger tumour); 77 % of control (endpoint: median tumor weight (est.), dose: 100.0 mg/kg/injection, schedule: Q01DX009 (ip), vehicle: saline, higher = larger tumour); 85 % of control (endpoint: median tumor weight (est.), dose: 200.0 mg/kg/injection, schedule: Q01DX009 (ip), vehicle: saline, higher = larger tumour).
As for `CC1(CO)C(O)CCC2(C)C1CCC1CC3CC12CCC3(O)CO` (centres undefined), the T/C runs as follows: (endpoint: median survival time, dose: 23.3 mg/kg/injection, schedule: Q01DX017 (sc), vehicle: Klucel (hydroxypropylcellulose) (HPC), higher = longer survival) 93 % of control; (endpoint: median survival time, dose: 38.9 mg/kg/injection, schedule: Q01DX017 (oral), vehicle: Klucel (hydroxypropylcellulose) (HPC), higher = longer survival) 93 % of control; (endpoint: median survival time, dose: 64.8 mg/kg/injection, schedule: Q01DX017 (ip), vehicle: Klucel (hydroxypropylcellulose) (HPC), higher = longer survival) 124 % of control; (endpoint: median survival time, dose: 64.8 mg/kg/injection, schedule: Q01DX017 (oral), vehicle: Klucel (hydroxypropylcellulose) (HPC), higher = longer survival) 102 % of control and 109 % of control; (endpoint: median survival time, dose: 64.8 mg/kg/injection, schedule: Q01DX017 (sc), vehicle: Klucel (hydroxypropylcellulose) (HPC), higher = longer survival) 163 % of control; (endpoint: median survival time, dose: 77.8 mg/kg/injection, schedule: Q04DX005 (ip), vehicle: Klucel (hydroxypropylcellulose) (HPC), higher = longer survival) 103 % of control. Besides, the T/C by setting is: (endpoint: median survival time, dose: 83.7 mg/kg/injection, schedule: Q01DX017 (oral), vehicle: Klucel (hydroxypropylcellulose) (HPC), higher = longer survival) 116 % of control; (endpoint: median survival time, dose: 100.0 mg/kg/injection, schedule: Q03HX003 (sc), vehicle: Klucel (hydroxypropylcellulose) (HPC), higher = longer survival) 106 % of control; (endpoint: median survival time, dose: 100.0 mg/kg/injection, schedule: Q03HX003 (sc), vehicle: saline, higher = longer survival) 102 % of control; (endpoint: median survival time, dose: 108.0 mg/kg/injection, schedule: Q01DX017 (ip), vehicle: Klucel (hydroxypropylcellulose) (HPC), higher = longer survival) 116 % of control; (endpoint: median survival time, dose: 108.0 mg/kg/injection, schedule: Q01DX017 (oral), vehicle: Klucel (hydroxypropylcellulose) (HPC), higher = longer survival) 100 % of control and 118 % of control; (endpoint: median survival time, dose: 108.0 mg/kg/injection, schedule: Q01DX017 (sc), vehicle: Klucel (hydroxypropylcellulose) (HPC), higher = longer survival) 113 % of control and 121 % of control. The T/C was 103 % of control (endpoint: median survival time, dose: 130.0 mg/kg/injection, schedule: Q04DX005 (ip), vehicle: Klucel (hydroxypropylcellulose) (HPC), higher = longer survival); 118 % of control (endpoint: median survival time, dose: 139.0 mg/kg/injection, schedule: Q01DX017 (oral), vehicle: Klucel (hydroxypropylcellulose) (HPC), higher = longer survival); 116 % of control (endpoint: median survival time, dose: 180.0 mg/kg/injection, schedule: Q01DX017 (oral), vehicle: Klucel (hydroxypropylcellulose) (HPC), higher = longer survival); 98 % of control (endpoint: median survival time, dose: 200.0 mg/kg/injection, schedule: Q03HX003 (sc), vehicle: Klucel (hydroxypropylcellulose) (HPC), higher = longer survival); 100 % of control (endpoint: median survival time, dose: 200.0 mg/kg/injection, schedule: Q03HX003 (sc), vehicle: saline, higher = longer survival); 104 % of control (endpoint: median survival time, dose: 216.0 mg/kg/injection, schedule: Q04DX005 (ip), vehicle: Klucel (hydroxypropylcellulose) (HPC), higher = longer survival). The T/C is 159 % of control (endpoint: median survival time, dose: 300.0 mg/kg/injection, schedule: Q01DX017 (oral), vehicle: Klucel (hydroxypropylcellulose) (HPC), higher = longer survival); 106 % of control (endpoint: median survival time, dose: 360.0 mg/kg/injection, schedule: Q04DX005 (ip), vehicle: Klucel (hydroxypropylcellulose) (HPC), higher = longer survival); 109 % of control (endpoint: median survival time, dose: 600.0 mg/kg/injection, schedule: Q04DX005 (ip), vehicle: Klucel (hydroxypropylcellulose) (HPC), higher = longer survival).
For `O=C(O)C1(C(=O)O)CCC1.[NH2-].[NH2-].[Pt+2]`, the T/C is, setting by setting: (endpoint: median survival time, dose: 6.25 mg/kg/injection, schedule: Q02DX030 (ip), vehicle: water, higher = longer survival) 98 % of control; (endpoint: median survival time, dose: 17.0 mg/kg/injection, schedule: Q01DX009 (ip), vehicle: other, higher = longer survival) 100 % of control; (endpoint: median survival time, dose: 25.0 mg/kg/injection, schedule: Q01DX009 (ip), vehicle: other, higher = longer survival) 114 % of control; (endpoint: median survival time, dose: 25.0 mg/kg/injection, schedule: Q02DX030 (ip), vehicle: water, higher = longer survival) 165 % of control; (endpoint: median survival time, dose: 25.92 mg/kg/injection, schedule: Q04DX005 (ip), vehicle: water, higher = longer survival) 162 % of control; (endpoint: median survival time, dose: 38.0 mg/kg/injection, schedule: Q01DX009 (ip), vehicle: other, higher = longer survival) 107 % of control. Further, the T/C runs as follows: (endpoint: median survival time, dose: 43.2 mg/kg/injection, schedule: Q04DX005 (ip), vehicle: water, higher = longer survival) 169 % of control; (endpoint: median survival time, dose: 50.0 mg/kg/injection, schedule: Q02DX030 (ip), vehicle: water, higher = longer survival) 94 % of control; (endpoint: median survival time, dose: 72.0 mg/kg/injection, schedule: Q04DX005 (ip), vehicle: water, higher = longer survival) 196 % of control; (endpoint: median tumor weight (est.), dose: 15.6 mg/kg/injection, schedule: Q04DX005 (ip), vehicle: water, higher = larger tumour) 22 % of control; (endpoint: median tumor weight (est.), dose: 25.92 mg/kg/injection, schedule: Q04DX005 (ip), vehicle: water, higher = larger tumour) 20 % of control.
Turning to `COc1ccc(/C=C2\SC(=O)N(C)C2=O)cc1OC`, the T/C by setting is: under setting [1], 93 % of control; under setting [2], 100 % of control; under setting [3], 93 % of control; under setting [4], 104 % of control; under setting [5], 110 % of control; under setting [6], 77 % of control.
Consider `OCCNCCN=C1CCC(=NCCNCCO)CC1`, for which the T/C under setting [1] was 100 % of control, the T/C under setting [2] is 100 % of control, the T/C under setting [4] was 105 % of control and the T/C under setting [5] was 112 % of control.
